Experiments:
[1] = Solid stability test (4 weeks of storage at 80° C., closed system; HPLC); assay type: physicochemical; conditions: for Chemical purity after 4 weeks of storage at 80° C. / Solid stability (result in words): 80° C. (closed system), 4 weeks; for Chemical purity after 4 weeks of storage at 80° C.: glass bottle; for Chemical purity after 4 weeks of storage at 80° C. / Chemical purity before storage: HPLC; for Solid stability (result in words): related substances by HPLC; for Change (chemical purity): after 4 weeks at 80° C. versus before storage; for Chemical purity before storage: UV 220
Procedure: The solid stability of the type II crystal of Compound (1) in free form, the type III crystal of Compound (1) in free form, the type VII crystal of Compound (1) in free form, and the type VIII crystal of Compound (1) in free form obtained in the examples, reference example, and comparative example were evaluated after 4 weeks of storage by the following procedure. • Storage conditions: 80° C. (closed system) (HIFLEX (high-temperature storage chamber manufactured by ETAC)) • Storage period: 4 weeks • Storage volume: Approximately 30 mg • Storage container: Glass bottle
Changes in the mass of the related substances (the amounts of detected substances other than Compound (1)) were analyzed by HPLC according to the following method. Approximately 8 mg of each sample was weighed and dissolved in I mL of a chloroform-methanol mixture (1:1 v/v). Fifty μL of this solution was measured and diluted with 950 μL of an acetonitrile-water mixture (7:3), and 5 μL of the resulting solution was accurately measured and used as the sample for the analysis.
The mass of the related substances in the sample solution was determined by HPLC analysis. The instrument, including data processing, was handled in accordance with the method and procedure indicated for each instrument. • Column: InertSustainSwift C18 (2.1×50 mm, 1.9 μm) manufactured by GL Sciences • UV detection: […] • Column temperature: 40° C. • Flow rate: 0.3 mL/min • Sample cooler: 10° C. • Sample concentration: 0.1 mg/mL • Mobile phase A: 10 mmol/L phosphate buffer (pH 6.8)/acetonitrile (95:5) mixture • Mobile phase B: Acetonitrile • The gradients are shown in Table 4.
The solid stability of the type III crystal of Compound (1) with succinic acid, the type I crystal of Compound (1) with citric acid, the type IV crystal of Compound (1) with citric acid, the type I crystal of Compound (1) with sorbic acid, and the type I crystal of Compound (1) with phosphoric acid obtained in the examples, reference example, and comparative examples were evaluated after 4 weeks of storage. The evaluation method, storage, and measurement conditions were as described in Test Example 1.

[2] = Dynamic vapor sorption (DVS) test; assay type: physicochemical; conditions: 25° C.; for Hygroscopicity (result in words): 5 to 95% RH; for Reversibility of water adsorption when the humidity was decreased: decrease from 95% to 5% RH
Procedure: Vapor sorption tests were performed using the type II crystal of Compound (1) in free form, the type III crystal of Compound (1) in free form, the type VII crystal of Compound (1) in free form, and the type VIII crystal of Compound (1) in free form obtained in the examples, reference example, and comparative example.
Vapor sorption tests were conducted under the following conditions.
Approximately 10 mg of the sample was filled into a specialized quartz holder to continuously measure and record the weight of the sample at each humidity was under the following conditions. The instrument, including data processing, was handled in accordance with the method and procedure indicated for each instrument. • Instrument: VTI-SA+(manufactured by TA Instruments) • Drying temperature: 60° C. • Heating rate: 1° C./min • Equilibration of drying: Confirmation of no more than 0.01 wt % decrease in 5 minutes within a period not exceeding 300 minutes • Measurement temperature: 25° C. • Equilibration of humidification: Confirmation of no more than 0.01 wt % increase in 5 minutes within a period not exceeding 120 minutes • Relative humidity program: Increase from 5 to 95% RH in increments of 5% RH, and decrease from 95% to 5% RH in increments of 5% RH. • Changes in the weight over the range of the measurement conditions obtained in these tests are shown in FIGS. 9 through 12.
Vapor sorption tests were performed using the type III crystal of Compound (1) with succinic acid, the type I crystal of Compound (1) with citric acid, the type IV crystal of Compound (1) with citric acid, the type I crystal of Compound (1) with sorbic acid, and the type I crystal of Compound (1) with phosphoric acid obtained in the examples, reference example, and comparative examples.
Vapor sorption tests were conducted under the same conditions as in Test Example 2.

[3] = listed as Type II crystal in free form
[4] = listed as type III crystal of Compound (1) in free form

Chemical purity after 4 weeks of storage at 80° C. [1] [%]	Change (chemical purity) [1]	Chemical purity before storage [1] [%]	Hygroscopicity (result in words) [2]	Chemical purity after 4 weeks of storage at 80° C. [1, 3] [%]	Change (chemical purity) [1, 3] [%]	Chemical purity before storage [1, 3] [%]	Weight increase under 95% relative humidity ([2]; 95% RH) [%]	Reversibility of water adsorption when the humidity was decreased [2, 4]	Reversibility of water adsorption when the humidity was decreased [2]	Structure (SMILES)	Solid stability (result in words) [1]	Solid stability (result in words) [1, 4]	Hygroscopicity (result in words) [2, 4]	Solid stability (result in words) ([1]; listed as type VII crystal of Compound (1) in free form)
93.49	−6.42%	99.91	highly hygroscopic							C#Cc1c(-c2cnc3ccccc3c2)c2c(N)ncnc2n1C12CCC(NC(=O)c3cnc(C)cn3)(CC1)C2 [Type IV crystal of Compound (1) with citric acid] [N-(4-(4-amino-6-ethynyl-5-(quinolin-3-yl)-7H-pyrrolo[2,3-d]pyrimidin-7-yl)bicyclo[2.2.1]heptan-1-yl)-5-methylpyrazine-2-carboxamide]	unstable crystals with decreases in purity			
99.63		99.63	highly hygroscopic						irreversible	C#Cc1c(-c2cnc3ccccc3c2)c2c(N)ncnc2n1C12CCC(NC(=O)c3cnc(C)cn3)(CC1)C2 [Type VII crystal in free form, N-(4-(4-amino-6-ethynyl-5-(quinolin-3-yl)-7H-pyrrolo[2,3-d]pyrimidin-7-yl)bicyclo[2.2.1]heptan-1-yl)-5-methylpyrazine-2-carboxamide]				extremely stable crystals with almost no increase in the related substances
99.43	−0.19%	99.62	highly hygroscopic						irreversible	C#Cc1c(-c2cnc3ccccc3c2)c2c(N)ncnc2n1C12CCC(NC(=O)c3cnc(C)cn3)(CC1)C2 [Type VIII crystal in free form, N-(4-(4-amino-6-ethynyl-5-(quinolin-3-yl)-7H-pyrrolo[2,3-d]pyrimidin-7-yl)bicyclo[2.2.1]heptan-1-yl)-5-methylpyrazine-2-carboxamide]				

The remaining lines, values behind:

Structure (SMILES)	Chemical purity after 4 weeks of storage at 80° C. [1] [%]	Change (chemical purity) [1]	Chemical purity before storage [1] [%]	Hygroscopicity (result in words) [2]	Chemical purity after 4 weeks of storage at 80° C. [1, 3] [%]	Change (chemical purity) [1, 3] [%]	Chemical purity before storage [1, 3] [%]	Weight increase under 95% relative humidity ([2]; 95% RH) [%]	Reversibility of water adsorption when the humidity was decreased [2, 4]	Reversibility of water adsorption when the humidity was decreased [2]	Solid stability (result in words) [1]	Solid stability (result in words) [1, 4]	Hygroscopicity (result in words) [2, 4]	Solid stability (result in words) ([1]; listed as type VII crystal of Compound (1) in free form)
C#Cc1c(-c2cnc3ccccc3c2)c2c(N)ncnc2n1C12CCC(NC(=O)c3cnc(C)cn3)(CC1)C2 [Type I crystal of Compound (1) with citric acid] [N-(4-(4-amino-6-ethynyl-5-(quinolin-3-yl)-7H-pyrrolo[2,3-d]pyrimidin-7-yl)bicyclo[2.2.1]heptan-1-yl)-5-methylpyrazine-2-carboxamide]	99.03	−0.72%	99.75	highly hygroscopic							unstable crystals with decreases in purity			
C#Cc1c(-c2cnc3ccccc3c2)c2c(N)ncnc2n1C12CCC(NC(=O)c3cnc(C)cn3)(CC1)C2 [Type I crystal of Compound (1) with phosphoric acid] [N-(4-(4-amino-6-ethynyl-5-(quinolin-3-yl)-7H-pyrrolo[2,3-d]pyrimidin-7-yl)bicyclo[2.2.1]heptan-1-yl)-5-methylpyrazine-2-carboxamide]	99.50	−0.40%	99.90	highly hygroscopic							unstable crystals with decreases in purity			
C#Cc1c(-c2cnc3ccccc3c2)c2c(N)ncnc2n1C12CCC(NC(=O)c3cnc(C)cn3)(CC1)C2 [Type II crystal of Compound (1) in free form] [N-(4-(4-amino-6-ethynyl-5-(quinolin-3-yl)-7H-pyrrolo[2,3-d]pyrimidin-7-yl)bicyclo[2.2.1]heptan-1-yl)-5-methylpyrazine-2-carboxamide]				hardly hygroscopic	99.78	−0.02	99.80	0.16			extremely stable crystals with almost no increase in the related substances			
C#Cc1c(-c2cnc3ccccc3c2)c2c(N)ncnc2n1C12CCC(NC(=O)c3cnc(C)cn3)(CC1)C2 [Type III crystal in free form, N-(4-(4-amino-6-ethynyl-5-(quinolin-3-yl)-7H-pyrrolo[2,3-d]pyrimidin-7-yl)bicyclo[2.2.1]heptan-1-yl)-5-methylpyrazine-2-carboxamide]	99.60	+0.02%	99.58	low hygroscopicity as long as RH is less than 65%					reversible			extremely stable crystals with almost no increase in the related substances	hygroscopicity that sharply increased at above 65% RH	

— patent US20250276973A1, “CRYSTAL OF 7H-PYRROLO[2,3-D]PYRIMIDINE-4-AMINE DERIVATIVE” (TAIHO PHARMACEUTICAL CO., LTD., priority 2022, published 2025)
